Results from patent US11040019B2, “Selective estrogen-receptor modulators (SERMs) confer protection against photoreceptor degeneration” (THE UNITED STATES OF AMERICA, as represented by the …, priority 2016, dated 2021).

Test system: 661W photoreceptors
Assay: Microglia-photoreceptor interaction assay: 661W viability (MTT) in conditioned media of LPS-stimulated BV2 microglia
Settings: BV2 pre-treated before LPS 50 ng/ml; 661W exposed 24 h; TMX 3 and 5 μg/ml, raloxifene 0.3-3 μM, G-1 1 μM, GPR30 antagonist 100 nM
Method: 661W photoreceptors cultured in 96-well plate (4×10^4 cells/well) were exposed to conditioned media from LPS-stimulated (50 ng/ml) BV2 microglia (cultured in 6-well plate with a cell density of 4×10^5 cells/well) for 48 h. […] Cell viability of 661W photoreceptors were assessed using a MTT assay.
Murine microglial cell line (BV-2) cells and photoreceptor-like cell line (661W) were used in this study. BV-2 cells were plated in 6-well plates at the density of 4×10^5/well and cultured for 24 h in DMEM medium (Life Technologies Corporation, Grand Island, N.Y.) containing 5% heat inactivated FBS (Life Technologies Corporation, Grand Island, N.Y.) at 37° C. in a humidified atmosphere of 5% CO2. […] Cell viability of 661W photoreceptors were assessed using a MTT cell proliferation assay kits (ATCC, Manassas, Va.) following the manufacturer's specifications. […]
661W photoreceptors cultured in 96-well plate (4×10^4 cells/well) were exposed to conditioned media from LPS-stimulated (50 ng/ml) BV2 microglia (cultured in 6-well plate with a cell density of 4×10^5 cells/well) for 24 h. […] Cell viability of 661W photoreceptors were assessed using a MTT assay.

SMILES | neurotoxicity of microglia-conditioned media to 661W photoreceptors (viability, MTT)
CC(=O)c1ccc2c(c1)C1C=CCC1C(c1cc3c(cc1Br)OCO3)N2 (centres unmarked) [G-1] | significantly reduced neurotoxicity
O=C(c1ccc(OCCN2CCCCC2)cc1)c1c(-c2ccc(O)cc2)sc2cc(O)ccc12 [raloxifene, [6-hydroxy-2-(4-hydroxyphenyl)-benzothiophen-3-yl]-[4-[2-(1-piperidyl)ethoxy]phenyl]-methanone] | significantly reduced neurotoxicity
